Marks after values point to notes of the source that are not given here.
What was measured:
CASP7 = test: RT-PCR of tumor samples, CASP7; assay type: in vivo, Sprague-Dawley rats; conditions: tumors of AMR-Me + DMBA rats
Experimental: (§1) Total RNA from 20 mg of tumor sample was extracted using Quick RNA® mini Prep kit following the manufacturer's instructions. The expression levels of apoptotic and anti-apoptotic genes were monitored by reverse transcription-polymerase chain reaction (RT-PCR) using the cDNA verso kit with a temperature scale of 42° C. for 30 min for reverse transcription, and 32 cycles of 94° C. for 30 s, 56° C. for 30 s, and 72° C. for 30 s. The RT-PCR was carried out using the primers: […]
(§2) The PCR products were analyzed on 1% agarose gel and visualized by ethidium bromide staining.

cyclin D1 = test: Immunohistochemistry of cyclin D1 in mammary tumors; assay type: in vivo, Sprague-Dawley rats; conditions: medium (1.2 mg/kg) or high (1.6 mg/kg) dose + DMBA, vs DMBA control
Experimental: (§3) Serial sections of tumor tissue were used processed for immunohistochemical analysis. Cell proliferation was studied by immunohistochemical detection of proliferating cell nuclear antigen (PCNA) as a proliferation marker. The analysis of apoptotic cells in tumor sections were performed by using TdT-FragEL™ DNA fragmentation detection assay kit (EMD Biosciences, Inc., San Diego, Calif.). The protein expression of Bax (apoptosis inducer),Bcl-2 (apoptosis repressor), ER-a, ER-β, cyclin D1 and β-catenin were determined. The immunohistochemical slides were visualized under a light microscope (BX43, Olympus, Center Valley, Pa.) and at least 1,000 cells/animal were analyzed. Results were expressed as percentage of immunopositive cells.

ER-α = test: Immunohistochemistry of ER-α in mammary tumors; assay type: in vivo, Sprague-Dawley rats; conditions: low (0.8 mg/kg) or medium (1.2 mg/kg) dose + DMBA
Experimental: as §3

BAD = test: RT-PCR of tumor samples, BAD; assay type: in vivo, Sprague-Dawley rats; conditions: tumors of AMR-Me + DMBA rats
Experimental: as §1, §2

CASP3 = test: RT-PCR of tumor samples, CASP3; assay type: in vivo, Sprague-Dawley rats; conditions: tumors of AMR-Me + DMBA rats
Experimental: as §1, §2

BCL2 = test: RT-PCR of tumor samples, BCL2; assay type: in vivo, Sprague-Dawley rats; conditions: tumors of AMR-Me + DMBA rats
Experimental: as §1, §2

[1] = mice; cited from earlier work
[2] = system: proliferating cell nuclear antigen (PCNA); test: Immunohistochemical detection of PCNA in tumor sections (cell proliferation); assay type: in vivo, Sprague-Dawley rats
Experimental: as §3

Bax [3] = test: Western blot of Bax in tumor tissue; assay type: in vivo, Sprague-Dawley rats; conditions: all doses (0.8, 1.2, 1.6 mg/kg) + DMBA
Experimental: (§4) Total proteins were extracted from tumor tissues with lysis buffer (containing 20 mM HEPES, 350 mM NaCl, […], 1 mM MgCh, 20% glycerol, and 1% NP-40), boiled and separated by 4-20% gradient sodium dodecyl sulfate-polyacrylamide gel electrophoresis. The proteins were transferred to polyvinylidene fluoride membranes (Santa Cruz Biotechnology Inc., Santa Cruz, Calif.), and reacted with primary mouse monoclonal antibodies to Bax, Bcl-2, Bel-XL and β-Actin (dilution 1:200) and subsequently with anti-mouse secondary antibodies (dilution 1:1,000) conjugated to horseradish peroxidase. The immunoreactions were detected by an enhanced chemiluminescence detection kit (Them10 Scientific, Rockford, Ill.) and relative intensities of bands on blots were quantitated by autoluminography using a Kodak digital imaging system. Normalization of Western blot was ensured by β-Actin.

breast cancer cells = conditions: cited from earlier work
[4] = system: breast cancer MCF-7 cells; conditions: in vitro; cited from earlier work
[5] = system: apoptotic cells in tumor sections; test: TdT-FragEL DNA fragmentation detection assay in tumor sections (apoptosis); assay type: in vivo, Sprague-Dawley rats
Experimental: as §3

β-catenin = test: Immunohistochemistry of β-catenin in mammary tumors; assay type: in vivo, Sprague-Dawley rats; conditions: 0.8 mg/kg or 1.2 mg/kg + DMBA
Experimental: as §3

[6] = system: DMBA-induced mammary tumorigenesis; test: Chemoprevention of DMBA-induced mammary tumorigenesis; conditions: for No. of rats with tumors/total rats / Total tumor burden / Tumor Incidence / Average tumor weight: + DMBA; for Average tumor weight: mean±SEM
Source text: Following an acclimatization period of one week, rats (−43 days of age) were randomly divided into six groups of 7-11 animals in each. […] Two groups (groups A and B) were maintained on the basal diet without any further treatment, whereas the remaining four groups (groups C, D, E and F) were fed with AMR-Me through oral gavage three times a week (Monday-Wednesday-Friday). AMR-Me was mixed in polyethylene glycol (Sigma-Aldrich, St. Louis, Mo.) and administered by gently securing the animal by holding the skin back of its head and delivering the drug slowly via an animal feeding needle (Popper and Sons, Inc., New Hyde Park, N.Y.) attached to a I-ml syringe (Becton Dickinson, Franklin Lakes, N.J.). This technique ensured the accurate oral dosing of the test material. Three doses of AMR-Me were used: 0.8 mg/kg (for group C), 1.2 mg/kg (for group D) and 1.6 mg/kg (for groups E and F). These three doses (low, medium and high) represent 40, 60 and 80% of calculated maximum tolerated dose (MTD) in rats, respectively. The rat MTD was calculated based on the MTD in mice (3 mg/kg/day).
Following two week of aforementioned treatment regimen, at −57 days of age, mammary carcinogenesis was initiated in all animals belonging to groups B, C, D and E by a single administration of the mammary carcinogen, DMBA at 50 mg/kg body weight by gavage. The DMBA was dissolved in corn oil. This dose of DMBA was chosen so that substantial tumor incidence could be produced but not so high as to overwhelm the chemopreventive action of AMR-Me. Oral treatment of rats with AMR-Me in groups C, D, E and F were continued for 16 weeks following the DMBA administration (i.e., a total period of 18 weeks). Food and water intake as well as behavioral patterns were monitored daily and body weights of animals were recorded every alternate week.
Animals were palpated along the milk line twice a week starting 4 weeks following DMBA treatment to detect the presence of mammary tumors. All animals were sacrificed at 16 weeks post-DMBA treatment (i.e., 18 weeks following the start of the experiment).
Following an overnight fast, animals from each group were anesthetized between 09:00 and 11:00 h by intramuscular injection of 40-87 mg/kg ketamine and 5-13 mg/kg xylazine. The skin was dissected out to expose mammary tumors. The tumors (approximated spheres) were separated from mammary gland parenchyma, carefully excised, rinsed with phosphate-buffered saline (pH 7.4) to flush out any blood, blotted dry on a paper towel, weighed, and photographed. Each tumor was measured in two perpendicular directions with a vernier caliper to the nearest mm to obtain an average diameter. The representative tumor tissue as well liver and kidney were harvested and either immediately flash frozen in liquid nitrogen for molecular work or fixed in 4% paraformaldehyde. Later, serial tumor sections (−15-μm thick) were prepared using a microtome. These sections were used for histopathological assessment by hematoxylin and eosin (H&E) staining.

PARP = test: RT-PCR of tumor samples, PARP; assay type: in vivo, Sprague-Dawley rats; conditions: tumors of AMR-Me + DMBA rats
Experimental: as §1, §2

Bax [7] = test: Immunohistochemistry of Bax in mammary tumors; assay type: in vivo, Sprague-Dawley rats
Experimental: as §3

[8] = General observations: body weight, food and water intake; assay type: in vivo, Sprague-Dawley rats
Experimental: The DMBA was dissolved in corn oil.

Bcl-2 [9] = test: Immunohistochemistry of Bcl-2 in mammary tumors; assay type: in vivo, Sprague-Dawley rats
Experimental: as §3

[10] = design: species or system Sprague-Dawley rats; conditions: rat, in vivo, 1.6 mg/kg
Experimental: The possible toxicity of high dose (1.6 mg/kg) of AMR-Me was studied by investigating hepatic and renal histopathological characteristics using H&E staining.

Bcl-2 [11] = test: Western blot of Bcl-2 in tumor tissue; assay type: in vivo, Sprague-Dawley rats
Experimental: as §4

Bax [12] = test: RT-PCR of tumor samples, BAX; assay type: in vivo, Sprague-Dawley rats; conditions: tumors of AMR-Me + DMBA rats
Experimental: as §1, §2

[13] = group C: 0.8 mg/kg oral three times a week, 18 weeks
[14] = group D: 1.2 mg/kg oral three times a week, 18 weeks
[15] = group E: 1.6 mg/kg oral three times a week, 18 weeks
[16] = medium (1.2 mg/kg) or high (1.6 mg/kg) dose + DMBA

In the case of `COC(=O)[C@]12CCC(C)(C)C[C@H]1C1=CC[C@@H]3[C@@]4(CO)CCC(=O)C(C)(C)[C@@H]4CC[C@@]3(C)[C@]1(C)CC2` [AMR-Me, 25-hydroxy-3-oxoolean-12-en-28-oic Acid Methyl Ester], the “CASP7 mRNA level (RT-PCR)” value (CASP7) is reported as “up-regulation”, the “percentage of cyclin D1-positive cells” value (cyclin D1) is reported as “significant (P<0.05 or 0.001) decrease” and the “intra-tumor expression of ER-α” value (ER-α) is reported as “reduced”. For the same compound, the “ratio of ER-α/ER-β” value (ER-α) was “concomitant drop”, the “BAD mRNA level (RT-PCR)” value (BAD) was “up-regulation” and the “CASP3 mRNA level (RT-PCR)” value (CASP3) was “up-regulation”. The “BCL2 mRNA level (RT-PCR)” value (BCL2) was “down-regulation”, the “maximum tolerated dose (MTD)” value [1] was 3 mg/kg/day and the “proliferation of tumor cells (PCNA-positive cells)” value ([2]; low dose 0.8 mg/kg + DMBA) was “marginal reduction in the proliferation of tumor cells”. For the same compound, the “PCNA labeling index (LI)” value ([2]; medium (1.2 mg/kg) or high (1.6 mg/kg) dose + DMBA, vs DMBA control) was “statistically significant (P<0.001) decrease”, the “Bax expression (Western blot)” value (Bax [3]) was “elevated the Bax expression” and the “inhibition of proliferation of several breast cancer cells, potency” value (breast cancer cells; relative to the parent compound) was “greater potency than the parent compound AMR”. For the same compound, the “potency against MCF-7 cells, concentrations” value [4] was “down to the nanomolar range”, the “apoptotic index (AI)” value ([5]; low dose 0.8 mg/kg + DMBA, vs DMBA control) was “no noticeable difference” and the “apoptotic index (AI)” value ([5]; medium (1.2 mg/kg) or high (1.6 mg/kg) dose + DMBA, vs DMBA) was “significant increase (P<0.001)”. The “cytosolic β-catenin expression” value (β-catenin) was “significant (P<0.001) decrease”, the “nuclear β-catenin expression” value (β-catenin) was “significant (P<0.001) decrease” and the “No. of rats with tumors/total rats” value [6, 13] was 5/8. The Total tumor burden [6, 13] was 57.5 g, the “Tumor Incidence” value [6, 13] was 62% and the Average tumor weight [6, 13] was 11.5 ± 4.9 ^ g. For the same compound, the “No. of rats with tumors/total rats” value [6, 14] was 2/7, the Total tumor burden [6, 14] was 9.6 g and the “Tumor Incidence” value [6, 14] was 28^a %. For the same compound, the Average tumor weight [6, 14] was 3.2 ± 1.5^b g, the “No. of rats with tumors/total rats” value [6, 15] was 2/7 and the Total tumor burden [6, 15] was 0.8 g. The “Tumor Incidence” value [6, 15] was 28^a %, the Average tumor weight [6, 15] was 0.38 ± 0.03^b g and the “visible mammary tumors in AMR-Me control” value ([6]; group F: 1.6 mg/kg without DMBA, 18 weeks) was “no visible mammary tumors”. The “improvement of cellular architecture in tumor tissue (H&E)” value ([6]; high dose 1.6 mg/kg + DMBA) was “substantial improvement of cellular architecture”, the size of tumors ([6]; high dose 1.6 mg/kg + DMBA) was “striking reduction in size” and the size of tumors ([6]; low dose 0.8 mg/kg + DMBA) was “reduced the size of tumors”. For the same compound, the “tumor histopathological features (H&E)” value ([6]; low dose 0.8 mg/kg + DMBA) was “did not modify tumor histopathological features”, the “improvement of cellular architecture in tumor tissue (H&E)” value ([6]; medium dose 1.2 mg/kg + DMBA) was “moderate” and the size of tumors ([6]; medium dose 1.2 mg/kg + DMBA) was “further decrease in the size of tumor”. For the same compound, the “PARP mRNA level (RT-PCR)” value (PARP) was “up-regulation”, the “frequency of Bax-immunopositive cells” value (Bax [7]; low dose 0.8 mg/kg + DMBA) was “extremely low” and the Bax/Bcl-2 ratio (Bax [7]; [16]) was “elevated the Bax/Bcl-2 ratio in a dose-responsive manner”. The Bax-positive cells (Bax [7]; medium (1.2 mg/kg) or high (1.6 mg/kg) dose + DMBA, vs DMBA alone) was “significantly (P<0.001) increased”, the “body weights among rat groups” value ([8]; 0.8, 1.2 or 1.6 mg/kg, any time point) was “No significant difference” and the “food and water intakes” value ([8]; normal animals, 1.6 mg/kg body weight, 18 weeks) was “unaltered”. The “expression of cytoplasmic Bcl-2” value (Bcl-2 [9]; low dose 0.8 mg/kg + DMBA) was “not altered”, the Bcl-2-positive cells (Bcl-2 [9]; [16]) was “significant (P<0.005 or 0.001) reduction” and the “hepatotoxicity (hepatic histopathology)” value [10] was “no hepatotoxicity was observed”. The “nephrotoxicity (renal histopathology)” value [10] was “did not exhibit any nephrotoxicity”, the “Bcl-2 expression (Western blot)” value (Bcl-2 [11]; high dose 1.6 mg/kg + DMBA) was “complete abrogation” and the “Bcl-2 expression (Western blot)” value (Bcl-2 [11]; low or medium dose + DMBA) was “did not modify Bel-2 expression”. For the same compound, the “BAX mRNA level (RT-PCR)” value (Bax [12]) was “up-regulation”.
For `CC1(C)CC[C@]2(C(=O)O)CC[C@]3(C)C(=CC[C@@H]4[C@@]5(CO)CCC(=O)C(C)(C)[C@@H]5CC[C@]43C)[C@@H]2C1` [AMR, 25-Hydroxy-3-oxoolean-12-en-28-oic Acid], the anti-neoplastic activity (breast cancer cells; plant-derived compound) is listed as “relatively weak”.
